Experimental findings from patent publication US10829520B2, “Beta-hairpin peptidomimetics” (POLYPHOR AG, priority 2015, dated 2020) are described below.

Holding throughout (type): cell-based
Data set [1] relates to Acinetobacter baumannii 872842. The note with it: 872842.
For data set [2], the system named is Acinetobacter baumannii DSM 30008. The note with it: DSM 30008. Summed up: (§1)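 Broth microdilution per CLSI, cation-adjusted MH-II medium, 0.002% (v/v) polysorbate 80 final. Approx. 10^6 CFU/mL inoculum, incubated 35° C for 18-20 h; MIC read as absence of visible growth.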
The test system of data set [3] is Escherichia coli 926415. The note with it: 926415.
In data set [4] the test system is Escherichia coli ATCC 25922. The conditions noted are these: ATCC 25922. The method, boiled down: as §1
The test system of data set [5] is Klebsiella pneumoniae 968733. The note with it: 968733.
Data set [6] concerns Klebsiella pneumoniae SSI #3010. The conditions noted are these: SSI #3010. Summed up: as §1
The subject of data set [7] is Pseudomonas aeruginosa ATCC 27853. The conditions noted are these: ATCC 27853. The method, boiled down:
as §1

The subject of data set [8] is human red blood cells (hRBC). In words: Hemolysis of human red blood cells. The note with it: red cells of human, 1 h. The method, boiled down: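 Percent lysis of washed human erythrocytes after 1 h at 37° C. with 100 μg/mL peptide, calculated from OD540 of 8-fold diluted supernatant as a fraction of the 2.5% Triton X-100 value.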

Each structure is given as a SMILES string. Where a SMILES comes first, the peptide text is derived from it. Bridges are numbered along the chain shown (N, C = ends). [ ]: non-standard residue; d: D form. Tle = CC(C)(C)[C@H](N)C(=O)O; dDab = NCC[C@@H](N)C(=O)O; Nle = CCCC[C@H](N)C(=O)O; Orn = NCCC[C@H](N)C(=O)O; Dab = NCC[C@H](N)C(=O)O; Dap = NC[C@H](N)C(=O)O

As for `CCCC[C@@H]1NC(=O)[C@@H]2CCCN2C(=O)[C@H]2CCCN2C(=O)[C@H](CO)NC(=O)[C@H](C)NC(=O)[C@H](C(C)(C)C)NC(=O)[C@@H](NC(=O)[C@H](Cc2c[nH]c3ccccc23)NC(C)=O)CSSC[C@@H](C(=O)N[C@@H](CCN)C(=O)N[C@@H](CN)C(=O)N[C@H]2CCNC(=O)[C@H]([C@@H](C)O)NC(=O)[C@H](CCN)NC(=O)[C@H](CCN)NC(=O)[C@H](CC(C)C)NC(=O)[C@@H](Cc3ccccc3)NC(=O)[C@H](CCN)NC2=O)NC(=O)[C@H](Cc2ccc(O)cc2)NC(=O)[C@H](CO)NC1=O` [Ex. 50] (Ac-WC[Tle]AS[dP]P[Nle]SYC[Dab][Dap][Dab][Dab][dF]L[Dab][Dab]T; disulfide 2-11; lactam 14-C), the “Acinetobacter baumannii 872842 MIC” value in data set [1] turned out to be 0.5 µg/mL. The “Acinetobacter baumannii DSM 30008 MIC” value in data set [2] turned out to be 0.25 µg/mL. For the same compound, the “Escherichia coli 926415 MIC” value in data set [3] came to 0.5 µg/mL. In addition, the “Escherichia coli ATCC 25922 MIC” value in data set [4] was determined as 0.25 µg/mL. For the same compound, the “Klebsiella pneumoniae 968733 MIC” value in data set [5] is 2 µg/mL. The “Klebsiella pneumoniae SSI #3010 MIC” value in data set [6] worked out at 0.25 µg/mL. Moreover, the “Pseudomonas aeruginosa ATCC 27853 MIC” value in data set [7] stood at 1 µg/mL. For the same compound, the “Hemolysis at 100 μg/mL” value in data set [8] (100 μg/mL) came out at 1%.
For the compound `CCCC[C@@H]1NC(=O)[C@@H]2CCCN2C(=O)[C@H]2CCCN2C(=O)[C@H](CO)NC(=O)[C@H](C)NC(=O)[C@H](C(C)(C)C)NC(=O)[C@@H](NC(=O)[C@H](Cc2ccccc2)NC(C)=O)CSSC[C@@H](C(=O)N[C@@H](CCCN)C(=O)N[C@@H](CCN)C(=O)N[C@H]2CCNC(=O)[C@H]([C@@H](C)O)NC(=O)[C@H](CCN)NC(=O)[C@H](CCN)NC(=O)[C@H](CC(C)C)NC(=O)[C@@H](Cc3ccccc3)NC(=O)[C@H](CCN)NC2=O)NC(=O)[C@H](Cc2ccc(O)cc2)NC(=O)[C@H](CO)NC1=O` [Ex. 51] (Ac-FC[Tle]AS[dP]P[Nle]SYC[Orn][Dab][Dab][Dab][dF]L[Dab][Dab]T; disulfide 2-11; lactam 14-C), the “Acinetobacter baumannii 872842 MIC” value in data set [1] was 4 µg/mL. Moreover, the “Acinetobacter baumannii DSM 30008 MIC” value in data set [2] stood at 0.5 µg/mL. Moreover, in data set [3], the “Escherichia coli 926415 MIC” value was determined as 2 µg/mL. In addition, the “Escherichia coli ATCC 25922 MIC” value in data set [4] was determined as 0.25 µg/mL. For the same compound, the “Klebsiella pneumoniae 968733 MIC” value in data set [5] turned out to be 4 µg/mL. Also, in data set [6], the “Klebsiella pneumoniae SSI #3010 MIC” value was determined as 0.5 µg/mL. Further, the “Pseudomonas aeruginosa ATCC 27853 MIC” value in data set [7] was determined as 1 µg/mL. Moreover, in data set [8] (100 μg/mL), the “Hemolysis at 100 μg/mL” value was less than 1%.
In the case of `CCCC[C@@H]1NC(=O)[C@@H]2CCCN2C(=O)[C@H]2CCCN2C(=O)[C@H](C(C)C)NC(=O)[C@H](C)NC(=O)[C@H](Cc2ccc(O)cc2)NC(=O)[C@@H](NC(=O)[C@H](Cc2c[nH]c3ccccc23)NC(C)=O)CSSC[C@@H](C(=O)N[C@@H](CCCN)C(=O)N[C@@H](CCN)C(=O)N[C@H]2CCNC(=O)[C@H]([C@@H](C)O)NC(=O)[C@H](CCN)NC(=O)[C@H](CCN)NC(=O)[C@H](CC(C)C)NC(=O)[C@@H](Cc3ccccc3)NC(=O)[C@H](CCN)NC2=O)NC(=O)[C@H](Cc2ccc(O)cc2)NC(=O)[C@H](CO)NC1=O` [Ex. 52] (Ac-WCYAV[dP]P[Nle]SYC[Orn][Dab][Dab][Dab][dF]L[Dab][Dab]T; disulfide 2-11; lactam 14-C), in data set [1], the “Acinetobacter baumannii 872842 MIC” value is 4 µg/mL. Further, the “Acinetobacter baumannii DSM 30008 MIC” value in data set [2] worked out at 0.5 µg/mL. Besides, the “Escherichia coli 926415 MIC” value in data set [3] was found to be 3 µg/mL. Also, the “Escherichia coli ATCC 25922 MIC” value in data set [4] amounted to 0.5 µg/mL. Further, the “Klebsiella pneumoniae 968733 MIC” value in data set [5] turned out to be 2 µg/mL. Further, in data set [6], the “Klebsiella pneumoniae SSI #3010 MIC” value stood at 0.5 µg/mL. Also, in data set [7], the “Pseudomonas aeruginosa ATCC 27853 MIC” value is 4 µg/mL. Besides, the “Hemolysis at 100 μg/mL” value in data set [8] (100 μg/mL) is 2%.
On to `CCCC[C@@H]1NC(=O)[C@@H]2CCCN2C(=O)[C@@H](CCN)NC(=O)[C@H](CO)NC(=O)[C@H](C)NC(=O)[C@H](C(C)(C)C)NC(=O)[C@@H](NC(=O)[C@H](Cc2c[nH]c3ccccc23)NC(C)=O)CSSC[C@@H](C(=O)N[C@@H](CCCN)C(=O)N[C@@H](CCN)C(=O)N[C@H]2CCNC(=O)[C@H]([C@@H](C)O)NC(=O)[C@H](CCN)NC(=O)[C@H](CCN)NC(=O)[C@H](CC(C)C)NC(=O)[C@@H](Cc3ccccc3)NC(=O)[C@H](CCN)NC2=O)NC(=O)[C@H](Cc2ccc(O)cc2)NC(=O)[C@H](CO)NC1=O` [Ex. 53] (Ac-WC[Tle]AS[dDab]P[Nle]SYC[Orn][Dab][Dab][Dab][dF]L[Dab][Dab]T; disulfide 2-11; lactam 14-C), for which the “Acinetobacter baumannii 872842 MIC” value in data set [1] was found to be 2 µg/mL. In data set [2], the “Acinetobacter baumannii DSM 30008 MIC” value was determined as 0.25 µg/mL. Also, the “Escherichia coli 926415 MIC” value in data set [3] is 1 µg/mL. The “Escherichia coli ATCC 25922 MIC” value in data set [4] came to 0.25 µg/mL. For the same compound, the “Klebsiella pneumoniae 968733 MIC” value in data set [5] amounted to 8 µg/mL. In data set [6], the “Klebsiella pneumoniae SSI #3010 MIC” value worked out at 0.5 µg/mL. Besides, in data set [7], the “Pseudomonas aeruginosa ATCC 27853 MIC” value turned out to be 2 µg/mL. Also, the “Hemolysis at 100 μg/mL” value in data set [8] (100 μg/mL) is 1%.
In the case of `CCCC[C@@H]1NC(=O)[C@@H]2CCCN2C(=O)[C@H]2CCCN2C(=O)[C@H](CO)NC(=O)[C@H](C)NC(=O)[C@H](C(C)(C)C)NC(=O)[C@@H](NC(=O)[C@H](Cc2c[nH]c3ccccc23)NC(C)=O)CSSC[C@@H](C(=O)N[C@@H](CCCN)C(=O)N[C@@H](CCN)C(=O)N[C@H]2CCNC(=O)[C@H]([C@@H](C)O)NC(=O)[C@H](CCN)NC(=O)[C@H](CCN)NC(=O)[C@H](CC(C)C)NC(=O)[C@@H](CC(C)C)NC(=O)[C@H](CCN)NC2=O)NC(=O)[C@H](Cc2ccc(O)cc2)NC(=O)[C@H](CO)NC1=O` [Ex. 54] (Ac-WC[Tle]AS[dP]P[Nle]SYC[Orn][Dab][Dab][Dab][dL]L[Dab][Dab]T; disulfide 2-11; lactam 14-C), the “Acinetobacter baumannii 872842 MIC” value in data set [1] was found to be 1 µg/mL. Further, the “Acinetobacter baumannii DSM 30008 MIC” value in data set [2] stood at 0.5 µg/mL. In data set [3], the “Escherichia coli 926415 MIC” value was 1 µg/mL. Also, in data set [4], the “Escherichia coli ATCC 25922 MIC” value worked out at 0.25 µg/mL. Besides, the “Klebsiella pneumoniae 968733 MIC” value in data set [5] was 4 µg/mL. The “Klebsiella pneumoniae SSI #3010 MIC” value in data set [6] amounted to 0.5 µg/mL. Besides, the “Pseudomonas aeruginosa ATCC 27853 MIC” value in data set [7] was 2 µg/mL. Moreover, the “Hemolysis at 100 μg/mL” value in data set [8] (100 μg/mL) came to 1%.
As for `CCCC[C@@H]1NC(=O)[C@@H]2CCCN2C(=O)[C@H]2CCCN2C(=O)[C@H](CO)NC(=O)[C@H](C)NC(=O)[C@H](C(C)(C)C)NC(=O)[C@H](CCN)NC(=O)[C@H](Cc2c[nH]c3ccccc23)NC(=O)[C@@H](NC(C)=O)CSSC[C@@H](C(=O)N[C@@H](CCN)C(=O)N[C@H]2CCNC(=O)[C@H]([C@@H](C)O)NC(=O)[C@H](CCN)NC(=O)[C@H](CCN)NC(=O)[C@H](CC(C)C)NC(=O)[C@@H](Cc3ccccc3)NC(=O)[C@H](CCN)NC2=O)NC(=O)[C@H](CCCN)NC(=O)[C@H](CCN)NC(=O)[C@H](Cc2ccc(O)cc2)NC(=O)[C@H](CO)NC1=O` [Ex. 57] (Ac-CW[Dab][Tle]AS[dP]P[Nle]SY[Dab][Orn]C[Dab][Dab][Dab][dF]L[Dab][Dab]T; disulfide 1-14; lactam 16-C), the “Acinetobacter baumannii 872842 MIC” value in data set [1] is 4 µg/mL. For the same compound, the “Acinetobacter baumannii DSM 30008 MIC” value in data set [2] came to 1 µg/mL. The “Escherichia coli 926415 MIC” value in data set [3] turned out to be 1 µg/mL. The “Escherichia coli ATCC 25922 MIC” value in data set [4] was determined as 0.25 µg/mL. Moreover, the “Klebsiella pneumoniae 968733 MIC” value in data set [5] turned out to be 8 µg/mL. Further, in data set [6], the “Klebsiella pneumoniae SSI #3010 MIC” value is 0.25 µg/mL. Further, the “Pseudomonas aeruginosa ATCC 27853 MIC” value in data set [7] is 0.5 µg/mL. In addition, the “Hemolysis at 100 μg/mL” value in data set [8] (100 μg/mL) is less than 1%.
In the case of `CCCC[C@@H]1NC(=O)[C@@H]2CCCN2C(=O)[C@H]2CCCN2C(=O)[C@H](CO)NC(=O)[C@H](C)NC(=O)[C@H](C(C)(C)C)NC(=O)[C@H](CCN)NC(=O)[C@H](Cc2c[nH]c3ccccc23)NC(=O)[C@@H](NC(C)=O)CCC(=O)NCC[C@@H](C(=O)N[C@@H](CCN)C(=O)N[C@H]2CCNC(=O)[C@H]([C@@H](C)O)NC(=O)[C@H](CCN)NC(=O)[C@H](CCN)NC(=O)[C@H](CC(C)C)NC(=O)[C@@H](Cc3ccccc3)NC(=O)[C@H](CCN)NC2=O)NC(=O)[C@H](CCCN)NC(=O)[C@H](CCN)NC(=O)[C@H](Cc2ccc(O)cc2)NC(=O)[C@H](CO)NC1=O` [Ex. 58] (Ac-EW[Dab][Tle]AS[dP]P[Nle]SY[Dab][Orn][Dab][Dab][Dab][Dab][dF]L[Dab][Dab]T; lactam 1-14, 16-C), in data set [1], the “Acinetobacter baumannii 872842 MIC” value was found to be 0.5 µg/mL. Besides, the “Acinetobacter baumannii DSM 30008 MIC” value in data set [2] came out at 0.25 µg/mL. The “Escherichia coli 926415 MIC” value in data set [3] amounted to 0.25 µg/mL. Also, the “Escherichia coli ATCC 25922 MIC” value in data set [4] was determined as 0.125 µg/mL. Besides, the “Klebsiella pneumoniae 968733 MIC” value in data set [5] came to 2 µg/mL. The “Klebsiella pneumoniae SSI #3010 MIC” value in data set [6] was 0.125 µg/mL. Besides, in data set [7], the “Pseudomonas aeruginosa ATCC 27853 MIC” value was 0.5 µg/mL. Also, the “Hemolysis at 100 μg/mL” value in data set [8] (100) is less than 1%.
